In patent US20080207527A1, “Bicyclic Compounds Which Inhibit Beta-Secretase Activity and Methods of Use Thereof” (CoMentis, Inc., priority 2004, published 2008):
pIC50, pKi: −log10 of the molar value.

How the values were obtained:
memapsin 2 = memapsin 2 (Homo sapiens, UniProt P56817); experiment: Inhibition of memapsin 2 beta-secretase activity toward fluorogenic substrate FS-2; assay type: biochemical; conditions: pH 4, 37° C., 20 minutes pre-incubation, read-out: M2 Ki
Summary of the method: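 Enzyme pre-incubated with compound 20 min at pH 4, 37 °C, then fluorogenic substrate FS-2 added. Inhibition derived from rate of fluorescence increase from peptide hydrolysis.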

Aβ production = experiment: Cellular Aβ IC50 determination (Aβ40 sandwich ELISA); assay type: cell-based; conditions: Cricetulus griseus, Chinese hamster ovary cells over-expressing human APP695 with London and Swedish mutations, 24 h
Summary of the method: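 CHO cells over-expressing human APP695 (London and Swedish mutations) were treated 48 h after seeding with serially diluted compound, top final concentration near 4 μM (0.4% DMSO), for 24 h at 37 °C, 5% CO2. Aβ40 in medium was measured by sandwich ELISA; values relative to control were fit to a 4-parameter IC50 model.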

memapsin 1 = biological target: T1, memapsin 1 (Homo sapiens, UniProt Q9Y5Z0); experiment: Inhibition of memapsin 1 beta-secretase activity (substrate peptide hydrolysis, MALDI-TOF); assay type: biochemical; conditions: pH 4.1, 37 degrees C., read-out: M1 Ki
T1 sequence (Q9Y5Z0 63-518): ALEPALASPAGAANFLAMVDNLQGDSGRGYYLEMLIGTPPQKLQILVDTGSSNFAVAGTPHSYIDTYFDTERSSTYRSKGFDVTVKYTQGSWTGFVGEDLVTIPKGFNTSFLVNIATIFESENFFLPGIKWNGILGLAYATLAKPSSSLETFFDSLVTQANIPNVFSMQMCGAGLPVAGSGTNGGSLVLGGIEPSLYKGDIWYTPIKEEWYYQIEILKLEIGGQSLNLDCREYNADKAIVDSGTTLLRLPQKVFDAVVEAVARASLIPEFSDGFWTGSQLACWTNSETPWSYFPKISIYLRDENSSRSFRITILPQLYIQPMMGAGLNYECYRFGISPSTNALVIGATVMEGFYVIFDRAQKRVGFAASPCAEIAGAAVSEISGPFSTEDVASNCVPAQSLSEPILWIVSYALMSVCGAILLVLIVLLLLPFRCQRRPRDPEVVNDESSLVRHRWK

Cathepsin D = Cathepsin D (Homo sapiens, UniProt P07339); experiment: Inhibition of cathepsin D activity (substrate peptide hydrolysis, MALDI-TOF); assay type: biochemical; conditions: pH 4.1, 37 degrees C., read-out: Cath D Ki
Sequence of Cathepsin D (P07339 65-412, species assumed): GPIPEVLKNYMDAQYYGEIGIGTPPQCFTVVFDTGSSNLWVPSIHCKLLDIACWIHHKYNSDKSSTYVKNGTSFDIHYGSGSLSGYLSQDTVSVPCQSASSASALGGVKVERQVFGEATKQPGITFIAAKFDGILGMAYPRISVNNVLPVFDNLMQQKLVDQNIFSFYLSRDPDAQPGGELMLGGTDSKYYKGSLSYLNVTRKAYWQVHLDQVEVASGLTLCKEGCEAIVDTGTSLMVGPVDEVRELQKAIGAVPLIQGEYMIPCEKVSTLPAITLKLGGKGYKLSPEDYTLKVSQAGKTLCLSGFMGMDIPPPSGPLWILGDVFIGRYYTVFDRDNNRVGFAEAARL

Sequence of memapsin 2 (P56817 46-501): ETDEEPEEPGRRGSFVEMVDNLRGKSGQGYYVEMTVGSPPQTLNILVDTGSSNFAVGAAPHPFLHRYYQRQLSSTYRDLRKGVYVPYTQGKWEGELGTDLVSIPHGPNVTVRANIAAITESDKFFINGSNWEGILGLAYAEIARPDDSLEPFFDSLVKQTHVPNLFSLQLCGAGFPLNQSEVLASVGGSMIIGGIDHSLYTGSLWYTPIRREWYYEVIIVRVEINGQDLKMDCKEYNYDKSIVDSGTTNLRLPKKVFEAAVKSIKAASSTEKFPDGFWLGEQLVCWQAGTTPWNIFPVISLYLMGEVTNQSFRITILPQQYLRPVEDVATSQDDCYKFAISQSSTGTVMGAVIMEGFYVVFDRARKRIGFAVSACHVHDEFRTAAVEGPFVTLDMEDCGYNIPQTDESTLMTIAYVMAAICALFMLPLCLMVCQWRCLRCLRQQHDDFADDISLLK

Row | SMILES | pKi (memapsin 2) | pIC50 (Aβ production) | pKi (memapsin 1) | pKi (Cathepsin D)
1 | COc1cccc(CNC(=O)C(C)CC(O)C(CC(C)C)NC(=O)c2cc(C(=O)NC(C)c3ccccc3)cc(N(C)S(C)(=O)=O)c2)c1 (stereo not shown) [N1-(5-hydroxy-8-(3-methoxybenzylamino)-2,7-dimethyl-8-oxooctan-4-yl)-5-(N-methylmethylsulfonamido)-N3-(1-phenylethyl)isophthalamide] | < 5.30 | 4.70 to 5.00 | < 5.30 | < 5.30
2 | CC(C)CNC(=O)C(NC(=O)C(C)CC(O)C(CC(C)C)NC(=O)c1cccc(C(=O)N(C)Cc2cccnc2)c1)C(C)C (stereo not shown) [N1-(5-hydroxy-8-(1-(isobutylamino)-3-methyl-1-oxobutan-2-ylamino)-2,7-dimethyl-8-oxooctan-4-yl)-N3-methyl-N3-(pyridin-3-ylmethyl)isophthalamide] | > 6.39 | < 4.70 | > 6.39 | > 6.39
3 | CC(C)CNC(=O)C(NC(=O)C(C)CC(O)C(CC(C)C)NC(=O)c1cccc(C(=O)N(C)Cc2cnccn2)c1)C(C)C (stereo not shown) [N1-(5-hydroxy-8-(1-(isobutylamino)-3-methyl-1-oxobutan-2-ylamino)-2,7-dimethyl-8-oxooctan-4-yl)-N3-methyl-N3-(pyrazin-2-ylmethyl)isophthalamide] | 5.70 to 6.39 | < 4.70 | 5.70 to 6.39 | > 6.39
4 | CC(C)CNC(=O)C(NC(=O)C(C)CC(O)C(CC(C)C)NC(=O)c1cccc(C(=O)N(C)C(C)c2ccccc2)c1)C(C)C (stereo not shown) [N1-(5-hydroxy-8-(1-(isobutylamino)-3-methyl-1-oxobutan-2-ylamino)-2,7-dimethyl-8-oxooctan-4-yl)-N3-methyl-N3-(1-phenylethyl)isophthalamide] | > 6.39 | < 4.70 | > 6.39 | > 6.39
